Source: article PMC9038752, “Molecular mechanisms of bifunctional vitamin D receptor agonist-histone deacetylase inhibitor hybrid molecules in triple-negative breast cancer” (Scientific Reports, 2022)

Biological target: T1, VDR (Mus musculus, UniProt P48281)
T1 construct: endogenous in cells; host or cells: 4TO7 and 4T1 mouse triple-negative breast cancer cells
T1 sequence (P48281 1-422): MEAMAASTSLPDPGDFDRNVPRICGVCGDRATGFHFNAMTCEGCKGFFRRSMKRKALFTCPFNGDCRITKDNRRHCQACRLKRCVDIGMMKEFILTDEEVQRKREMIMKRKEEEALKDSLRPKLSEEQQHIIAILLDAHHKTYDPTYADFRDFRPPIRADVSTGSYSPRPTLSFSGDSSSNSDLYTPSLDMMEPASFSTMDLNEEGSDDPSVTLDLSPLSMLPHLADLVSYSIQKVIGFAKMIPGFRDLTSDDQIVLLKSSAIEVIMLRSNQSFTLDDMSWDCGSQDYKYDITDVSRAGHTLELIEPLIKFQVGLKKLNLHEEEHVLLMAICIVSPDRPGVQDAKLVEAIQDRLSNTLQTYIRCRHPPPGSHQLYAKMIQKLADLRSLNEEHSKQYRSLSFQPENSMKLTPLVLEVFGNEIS
Test: Cyp24a1 induction assay for VDR agonism in 4TO7 cells
Type: cell-based
Settings: 24 h
Experimental: Figure 5 (a) and (b) Analysis of induced Cyp24a1 expression in 4TO7 (a) and 4T1 (b) cells to test for VDR agonism of DK-406 and heterocyclic analogues after 24 h treatment. c-e. Analysis of the cytotoxicity of hybrid compounds after 24 h using the MTGlo assay (see Methods for details) in 4TO7 (c), 4T1 (d) and MDA-MB-231 (e) cells. […] Each condition was compared to control. *: p ≤ 0.05, **: p ≤ 0.01, ***: p ≤ 0.001, ****: p ≤ 0.0001, ns: not significant.
As previously, we were interested in studying the efficacy of hybrids in models of TNBC. We used the 4T1 cell line[20] as well as the related TNBC cell line 4TO7, which was derived from the same mouse tumor as 4T1 cells in Balb/c mice[33]. 4TO7 cells readily form primary tumors. […] These lines also have the advantage that anti-tumor efficacy studies can be performed in Balb/c mice, which have intact immune systems. Compounds were initially tested for VDR agonist activity in 4TO7 cells by screening induction of the VDR target gene Cyp24a1. […] The pyridyl hybrids were then tested for efficacy in vitro in 4TO7 and 4T1 cells using an MT-Glo assay in which only viable cells can convert a precursor into a substrate for a luciferase bioluminescence assay (Fig. 5c,d; see Methods for details).
Mouse 4T07 cells and 4T01 cells were cultured in DMEM (319–005-CL; WISENT Inc.) supplemented with 10% heat-inactivated FBS. MB-MDA231 cells were cultured in Leibovitz’s L-15 medium with 10% heat-inactivated FBS in the absence of CO2.
RNA extraction was performed with the FavorPrep tissue total RNA mini kit (FAVORGEN Biotech Corporation—FATRK 001) as per manufacturer’s instructions. cDNA was obtained from 1 µg of RNA using 5X All-in-One RT Mastermix (Applied Biological Materials (abm) Inc.—G485) and diluted 5 times. qPCR was performed with BrightGreen 2X q-PCR MasterMix (abm—MasterMix-LR-XL) on a Roche LightCycler 96 system. Expression of targeted genes was normalized to 18S RNA.

VDR agonist activity (Cyp24a1 induction)	potency in Cyp24a1 induction assay relative to DK-406	Compound
weakly potent VDR agonists	–	CCC(CC)(c1ccc(OCC(O)C(C)(C)C)c(C)c1)c1ccc(OCC(=O)NO)cn1 (centres unmarked) [AM-155]
weakly potent VDR agonists	–	CCC(CC)(c1ccc(OCC(O)C(C)(C)C)c(C)c1)c1ccc(OCCCC(=O)NO)cn1 (centres unmarked) [AM-171]
partial agonists	approximately tenfold	CCC(CC)(c1ccc(OCCCCCC(=O)NO)cc1)c1ccc(OCC(O)C(C)(C)C)c(C)n1 (centres unmarked) [AM-193]
partial agonists	–	CCC(CC)(c1ccc(C(=O)NCCCCCC(=O)NO)cc1)c1ccc(OCC(O)C(C)(C)C)c(C)c1 (centres unmarked) [DK-406]
